Results on 3 compounds are retold here after paper PMC5727045, “Anti-biofilm Properties of Bacterial Di-Rhamnolipids and Their Semi-Synthetic Amide Derivatives” (Frontiers in Microbiology, 2017).

Each structure is given as a SMILES string. In brackets after ≈: the same amount, converted by molar mass. Entries after “also recorded” stand apart in the source; their conditions may differ. Some results are limits rather than exact numbers.

For orientation: MIC means the lowest concentration that inhibits growth of the organism.

The test system of series [1] is P. aeruginosa PAO1. As to the kind of experiment: Inhibition of biofilm formation, crystal violet. It counts as cell-based, Pseudomonas aeruginosa. The following applies: for Biofilm formation (%): P. aeruginosa PAO1, 50 μg mL^-1. An excerpt:
(§1) Test organisms for the antibacterial assays were obtained from the National Collection of Type Cultures (NCTC) and the American Type Culture Collection (ATCC). P. aeruginosa PAO1 NCTC 10332, S. aureus ATCC 25923 and S. aureus ATCC 43300 (MRSA) and S. marcescens ATCC 27117 were used in this study. One clinical isolate of P. aeruginosa DM50 with high ability to form biofilms and resistance to metronidazole, clindamycin and amoxicillin was also included ([Glisic et al., 2016]). Bacterial strains were grown in Luria Bertani (LB) broth at 37°C on a rotary shaker at 180 rpm.
(§2) Biofilm quantification assays were performed in 96-well microtiter plates using a crystal violet (CV) method to stain adherent cells ([Merritt et al., 2005]). Overnight cultures of bacteria were diluted to 5 × 10^7 cfu mL^-1 in LB and 100 μL was added to the wells in the presence of test compounds or DMSO (0.1%, v/v). Biofilms formed for 24 h at 37°C for P. aeruginosa and S. aureus, or 30°C for S. marcescens were washed and adherent cells stained with CV 0.1% (v/v). BFIC50 (concentration of compound that inhibited biofilm formation by 50%) was determined for each compound.
The effect of rhamnolipids on P. aeruginosa biofilm formation was examined additionally by introducing 3 h adhesion phase after inoculation with 5 × 10^7 cfu mL^-1 cells. Following adhesion, the supernatant was removed and, after two washing steps with phosphate buffered saline (PBS), test compounds or DMSO were applied and the biofilms were quantified after 24 h using CV. Each biofilm formation assay was performed in six wells and repeated at least three times.

Series [2] deals with P. aeruginosa DM50. As to the kind of experiment: Inhibition of biofilm formation, crystal violet. It counts as cell-based, Pseudomonas aeruginosa. The note with it: P. aeruginosa DM50, 50 μg mL^-1.
Excerpt: as §1, §2

For series [3], the system named is S. aureus ATCC 25923. As to the kind of experiment: Inhibition of biofilm formation, crystal violet. It counts as cell-based, Staphylococcus aureus. The note with it: S. aureus ATCC 25923, 50 μg mL^-1.
Excerpt: as §1, §2

The test system of series [4] is S. aureus MRSA. The series can be described thus: Inhibition of biofilm formation, crystal violet. It counts as cell-based, Staphylococcus aureus.
Excerpt: as §1, §2

Series [5] relates to S. marcescens ATCC 27117. The series can be described thus: Inhibition of biofilm formation, crystal violet. Format: cell-based, Serratia marcescens. The note with it: S. marcescens ATCC 27117, 50 μg mL^-1.
Excerpt: as §1, §2

For series [6], the system named is P. aeruginosa DM50. The series can be described thus: Biofilm dispersion assay, crystal violet. It counts as cell-based, Pseudomonas aeruginosa. The following applies: P. aeruginosa DM50, 50 μg mL^-1.
Excerpt: as §1
(§3) An overnight culture of P. aeruginosa was diluted to 5 × 10^7 cfu mL^-1 in LB and 100 μL was added to the wells in 96-well microtiter plates and incubated for 24 h at 37°C. After removal of the supernatant and two washing steps with PBS adherent cells were treated with different concentrations of rhamnolipids or derivatives for additional 24 h and the biofilms were quantified using CV as described above. Biofilm dispersion assays were performed in six wells and repeated three times.

For series [7], the system named is P. aeruginosa PAO1. The series can be described thus: Biofilm dispersion assay, crystal violet. The following applies: for Biofilm biomass (%) remained after biofilm dispersion: P. aeruginosa PAO1, 50 μg mL^-1. Format: cell-based, Pseudomonas aeruginosa.
Excerpt: as §1, §3

Series [8] relates to S. aureus ATCC 25923. As to the kind of experiment: Biofilm dispersion assay, crystal violet. The note with it: S. aureus ATCC 25923, 50 μg mL^-1. Format: cell-based, Staphylococcus aureus.
The subject of series [9] is S. aureus MRSA. The series can be described thus: Biofilm dispersion assay, crystal violet. It counts as cell-based, Staphylococcus aureus.
Series [10] concerns S. marcescens ATCC 27117. As to the kind of experiment: Biofilm dispersion assay, crystal violet. The note with it: S. marcescens ATCC 27117, 50 μg mL^-1. It counts as cell-based, Serratia marcescens.
Excerpt: as §1, §3

Series [11] concerns P. aeruginosa DM50. As to the kind of experiment: MIC, broth microdilution, planktonic cells. The following applies: Pseudomonas aeruginosa; P. aeruginosa DM50, 24 h incubation. Format: cell-based.
Excerpt: as §1
(§4) The minimum inhibitory concentration (MIC) of rhamnolipids and their derivatives were determined according to standard broth microdilution assays recommended by the National Committee for Clinical Laboratory Standards (M07-A8).
(§5) Stock solutions of rhamnolipids and derivatives were prepared in DMSO (50 g L^-1, w/v). The highest concentration used was 500 mg L^-1. The inoculums were 10^5 colony forming units (cfu) mL^-1.
(Dilution methods test growth across graded concentrations, often in twofold steps.)

The subject of series [12] is P. aeruginosa PAO1. As to the kind of experiment: MIC, broth microdilution, planktonic cells. It counts as cell-based. The following applies: Pseudomonas aeruginosa; P. aeruginosa PAO1, 24 h incubation.
Excerpt: as §1, §4, §5

The test system of series [13] is S. aureus ATCC 25923. The series can be described thus: MIC, broth microdilution, planktonic cells. Format: cell-based. The note with it: Staphylococcus aureus, ATCC25923, 24 h, S. aureus ATCC 25923, 24 h incubation.
Excerpt: as §1, §4, §5

For series [14], the system named is S. aureus MRSA. The series can be described thus: MIC, broth microdilution, planktonic cells. It counts as cell-based. The note with it: Staphylococcus aureus, 24 h, 24 h incubation.
Excerpt: as §1, §4, §5

Series [15] deals with S. marcescens ATCC 27117. As to the kind of experiment: MIC, broth microdilution, planktonic cells. Format: cell-based. The following applies: Serratia marcescens, ATCC27117; S. marcescens ATCC 27117, 24 h incubation.
Excerpt: as §1, §4, §5

Series [16] has as its system P. aeruginosa PAO1-GFP. As to the kind of experiment: Anti-adhesion assay, GFP fluorescence. It counts as cell-based, Pseudomonas aeruginosa. The following applies: 2 h. How it is done:
Anti-adhesion assay was performed as previously described ([Shetye et al., 2014]) with some modifications. An overnight culture of P. aeruginosa PAO1 containing pBBR2-GFP ([da Silva et al., 2014]) was subcultured (initial OD600 = 0.02) in M9+/LB (95:5) containing gentamycin (80 mg L^-1), tetracycline (20 mg L^-1), and chloramphenicol (50 mg L^-1) at 37°C in a rotary shaker (200 rpm). After reaching OD600 = 0.1, aliquots (200 μL) were transferred to the wells of black polystyrene microtiter plate with rhamnolipids, derivatives or DMSO (control). After incubation at 37°C for 2 h, bacterial cultures were discarded, and the fluorescence of adherent cells was measured after addition of fresh M9+/LB (95:5) medium using Tecan Infinite 200 Microplate reader (Tecan Group Ltd., Switzerland, lex = 500 nm, lem = 540 nm). Background signal (M9+/LB (95:5) was subtracted from all the samples. Assays were repeated three times; inhibition values are the averages of six replicate wells from one experiment.

In series [17] the test system is MRC5 human lung fibroblasts. As to the kind of experiment: Cytotoxicity assay, MTT. It counts as cell-based. The following applies: concentrations up to 100 μg mL^-1, MTT, 48 h. How it is done:
MRC5 human lung fibroblasts were obtained from the ATCC. Cells were maintained as monolayer cultures in RPMI-1640 supplemented with 100 mg L^-1 streptomycin, 100 U mL^-1 penicillin and 10% (v/v) FBS (all from Sigma, Munich, Germany). Cells were grown in a humidified atmosphere of 95% air and 5% CO2 at 37°C.
Cytotoxicity on MRC5 cells was evaluated with 3-(4,5-dimethylthiazol-2-yl)-2,5-diphenyltetrazolium bromide (MTT). The assay was carried out after 48 h of cell incubation in the media containing test compounds at different concentrations and the viability was measured as described ([Mihajlovic et al., 2012]). The results are presented as the percentage of the control (untreated cells) that was arbitrarily set to 100%.

[18] abbreviates: listed as Rha-TBDMS (Lysinibacillus sp. BV152.1).
Where [19] appears, read: 50 μg mL^-1, listed as Rha-TBDMS (Lysinibacillus sp. BV152.1).

Consider `CCCCCCCC(CC(=O)O)OC(=O)CC(CCCCCCC)O[C@@H]1O[C@@H](C)[C@H](O[Si](C)(C)C(C)(C)C)[C@@H](O[Si](C)(C)C(C)(C)C)[C@H]1O[C@@H]1O[C@@H](C)[C@H](O[Si](C)(C)C(C)(C)C)[C@@H](O[Si](C)(C)C(C)(C)C)[C@H]1O[Si](C)(C)C(C)(C)C` (some centres unmarked), for which the anti-biofilm formation activity entry in [1] (P. aeruginosa PAO1) is “no anti-biofilm formation activity”. The “Biofilm formation (%)” value in [1] (setting [18]) was 115 ± 10%; in [2] (setting [18]) it was 100 ± 8%; in [3] (setting [18]), 88 ± 12%; in series [4] (setting [19]), 106 ± 4%; in [5] (setting [18]) it was 85 ± 1%. Further, the “Biofilm biomass (%) remained after biofilm dispersion” value (from here on “Biofilm biomass (%) remained”) in [6] (setting [18]) stood at 65 ± 1%; in series [7] (setting [18]) it was 80 ± 6%; in series [8] (setting [18]), 110 ± 22%; in series [9] (setting [19]) it was 101 ± 14%; in [10] (setting [18]) it was 99 ± 8%.
As for `CCCCCCCC(CC(=O)O)OC(=O)CC(CCCCCCC)O[C@@H]1O[C@@H](C)[C@H](O[Si](C)(C)C(C)(C)C)[C@@H](O[Si](C)(C)C(C)(C)C)[C@H]1O[C@@H]1O[C@@H](C)[C@H](O[Si](C)(C)C(C)(C)C)[C@@H](O[Si](C)(C)C(C)(C)C)[C@H]1O[Si](C)(C)C(C)(C)C` (some centres unmarked) [di-Rha-TBDMS (P. aeruginosa)], the MIC in [11], in series [12], in series [13], in series [14] and in series [15] was more than 500 µg/mL in each case. Moreover, the “Biofilm formation (%)” value is reported as 95 ± 7% in series [1]; 73 ± 6% in series [2]; 88 ± 10% in series [3]; 69 ± 11% in series [4] (50 μg mL^-1); 117 ± 4% in series [5]. For the same compound, the “Biofilm biomass (%) remained” value in [6] came to 78 ± 10%; in [7] it was 76 ± 10%; in series [8], 82 ± 3%; in series [9] (50 μg mL^-1) it was 120 ± 10%; in series [10] it was 155 ± 3%. For the same compound, in series [16], the anti-adhesion activity result is on record as “no significant anti-adhesion activity”. In series [17], the “Viability of human lung fibroblasts (MRC5)” value is “not affected”.
Take `CCCCCCCC(CC(=O)O)OC(=O)CC(CCCCCCC)O[C@@H]1O[C@@H](C)[C@H](O)[C@@H](O)[C@H]1O[C@@H]1O[C@@H](C)[C@H](O)[C@@H](O)[C@H]1O` (stereo partly drawn) [di-Rha, Rha-Rha-C10-C10]: the minimum inhibitory concentration (MIC) in [11], in series [12], in [13], in series [14] and in series [15] was more than 500 µg/mL in each case. The “Biofilm formation (%)” value in [1] was determined as 50 ± 3%; in series [2], 109 ± 10%; in [3] it was 37 ± 4%; in series [4] (50 μg mL^-1), 44 ± 11%; in series [5], 20 ± 5%. Also, the “effect on biofilm formation when bacteria were left to attach prior to treatment” value in [1] (P. aeruginosa PAO1, concentrations up to 50 μg mL^-1) is “stimulated biofilm formation”. The IC50 in series [1] (Pseudomonas aeruginosa, P. aeruginosa PAO1, 24 h, read-out: BFIC50 (concentration of compound that inhibited biofilm formation by 50%)) stood at 75 µg/mL (≈ 115 µM). Further, the “Biofilm biomass (%) remained” value in series [6] is reported as 135 ± 10%; in series [7] it was 77 ± 3%; in [8] it was 80 ± 9%; in series [9] (50 μg mL^-1), 82 ± 7%; in series [10], 193 ± 8%. Also, in [7] (24 h old P. aeruginosa biofilms, 100 μg mL^-1), the “disruption of pre-formed biofilms” value was “up to 20%”. In addition, in series [17], the “Viability of human lung fibroblasts (MRC5)” value was “not affected; also recorded: not toxic”.
